The text below walks through data of publication PMC10878751, “N-Substituted Phenylhydrazones Kill the Ring Stage of Plasmodium falciparum” (BioMed Research International, 2024).

Where two headings read alike, the source gives them in different places. Bounds are passed on as bounds.

The test system of series [1] is 3D7 chloroquine-sensitive strain of Plasmodium falciparum. As to the kind of experiment: SYBR green antimalarial assay, 3D7 strain. The method, then:
(§1) The SYBR green and cytotoxicity assay procedure to determine the potency of the phenylhydrazones was according to [16].
(§2) One-milligram (1 mg) powder of each compounds was weighed and transferred into dimethylsulphoxide (DMSO) (1 ml of 0.5% v/v) to yield a stock concentration of 1000 μg/ml. The stock solution was vortexed well to dissolve the compounds and later filtered through 0.2 μm pore filter unit and then stored in a -20°C freezer until use. The stock products were diluted 10-fold to obtain a working solution of 100 μg/ml. This working solution was further serially diluted […] to obtain the concentrations 100 μg/ml, 50 μg/ml, 25 μg/ml, 12.5 μg/ml, 6.25 μg/ml, 3.13 μg/ml, 1.56 μg/ml, 0.78 μg/ml, and 0.39 μg/ml.
(§3) Continuous P. falciparum asexual cultures were maintained in vitro in an atmosphere of 93% N2, 4% CO2, and 3% O2 at 37°C in complete medium (CM) (10.44 g/liter Roswell Park Memorial Institute Medium (RPMI) 1640, 5.94 g/liter N-2-hydroxyethylpiperazine-N-2-ethane sulfonic acid (HEPES), 5 g/liter AlbuMAX II, 50 mg/liter hypoxanthine, and 2.1 g/liter sodium bicarbonate). Parasites were cultured in O+ RBCs and maintained in the incubator with daily media change until a parasitemia of more than 5% ring stages was obtained. The culture was then treated with 5% sorbitol to obtain synchronized ring stage, and parasite growth was monitored for some few days by estimating percentage (%) parasitemia using Giemsa-stained slides and light microscope with 100x magnification until parasitemia of more than 5% was recorded. Parasite suspension of 2% hematocrit with 1% parasitemia was prepared using uninfected blood to make a total of 14 ml in a complete culture medium for the plating. Compound plating and SYBR green assay were according to [16].
(§4) One hundred (100) microliters of each nine dilutions (100 μg/ml, 50 μg/ml, 25 μg/ml, 12.5 μg/ml, 6.25 μg/ml, 3.13 μg/ml, 1.56 μg/ml, 0.78 μg/ml, and 0.39 μg/ml) was plated in duplicate in a 96-well coastal plate. 15 ng/ml of artesunate was serially diluted and plated alongside with the compounds as a standard antimalarial control drug. One hundred of parasite mix with 2% hematocrit and 1% parasitemia were added to each treated well starting from the 2nd well to the 10th well. One hundred microliters of parasite mix without any drug was added to the 11th well as a negative control, and the procedure was repeated for the rest of other extract/compounds. The plates were arranged in a modular chamber and gassed for 5 min with gas mixture of 5% oxygen, 5% carbon dioxide, and 90% nitrogen and then kept at 37°C for 72 h.
(§5) The plates were harvested after 72 h, and the assays were paused by adding 100 μl lysing buffer containing SYBR green to each well and was thoroughly and gently mixed to avoid production of bubbles. The plates were then incubated in the dark for 30-60 minutes before reading the assay using FLUOstar OPTIMA Fluorometer plate reader with control software version 2.20 at 470 nm and 520 nm wavelengths.
(§6) Each compound was tested in triplicate concentration that inhibits asexual Plasmodium falciparum parasite by 50% (IC50) estimated from dose-response curves by nonlinear regression analysis using GraphPad Prism version 7.0 software (GraphPad software, San Diego, CA, USA). Cytotoxicity analysis was carried out using Microsoft Excel Version 2010.

The nature of series [2]: MTT cytotoxicity assay. The method, then: as §1
(§7) Following that, 100 μl of uninfected red blood cells was put to each well. Compound, culture medium, and uninfected red blood cells were subtracted from the optical densities by running control experiments for each parameter independently alongside the main experiment. The plates were then incubated for 72 hours at 37°C in a humidified incubator with 5% O2 and CO2 before 20 μl of 2.5 mg/ml MTT (in phosphate-buffered saline) solution was added to each well, and the plate was incubated for another 2 hours. After incubation, aliquots of culture medium (150 μl) were taken and discarded from each well, and 200 μl of Triton X-100 in acidified isopropanol was added to each well to dissolve any formazan produced. The plates were then maintained at room temperature in the dark for 24 hours before the optical densities of the wells were measured using a plate reader at 570 nm. […] The CC50 values were compared to the standard values.
A general note: Formazan colour is commonly taken as a measure of viable cells.

Series [3] concerns DD2 chloroquine-resistance strain. As to the kind of experiment: SYBR green antimalarial assay, DD2 strain. The method, then: as §1, §2, §3, §4, §5, §6
Series [4] has as its system uninfected red blood cells. As to the kind of experiment: MTT cytotoxicity assay. Particulars: uninfected red blood cells, 72 h, MTT. The method, then:
as §1, §7

Where [5] appears, read: Plasmodium falciparum, 3D7, 72 h, read-out: 3D7 IC50.
The mark [6] stands for this setting: Plasmodium falciparum, 3D7, read-out: pIC50 3D7 (converted).
Where [7] appears, read: Plasmodium falciparum, DD2, 72 h, read-out: DD2 IC50.
The mark [8] stands for this setting: Plasmodium falciparum, DD2, read-out: pIC50 Dd2 (converted).

By CC50 is commonly meant the concentration at which the toxic effect on the cells reaches its halfway point. Low values mean harm at low concentration, high ones better tolerance by the cells.

On to `O=[N+]([O-])c1ccc(NN=Cc2cccc(O)c2)c([N+](=O)[O-])c1` [PHN6, 3-(2-2(4-Dinitrophenyl) Hydrazono) Methylphenol], for which the IC50 was 1.29 ± 0.05 µM in series [1] (setting [5]), 4.27 µM in series [1] (setting [6]), 5.12 ± 0.07 µM in series [3] (setting [7]) and 17 µM in series [3] (setting [8]). Besides, the “SI = CC50/IC50 for 3D7” value in series [1] (selectivity index) is reported as 79. This compound also showed a CC50 at 72 h in series [2] of 101 µM. In addition, the “SI = CC50/IC50 for DD2” value in series [3] (selectivity index) worked out at 19.

Take `O=[N+]([O-])c1ccc(NN=C(c2ccccc2)c2ccccc2)c([N+](=O)[O-])c1` [PHN1, (2,4-Dinitrophenyl)-2-(diphenylmethylene) Hydrazine]: the IC50 was 31 ± 0.37 µM in series [1] (setting [5]), 34.89 ± 0.17 µM in series [3] (setting [7]) and 89.1 µM in series [3] (setting [8]). Besides, the “SI = CC50/IC50 for 3D7” value in series [1] (selectivity index) was 3. This compound registered a half-maximal cytotoxic concentration (CC50) at 72 h in series [2] of 106 µM. Also, in series [3] (selectivity index), the “SI = CC50/IC50 for DD2” value is on record as 3.

In the case of `COc1cc(C=NNc2ccc([N+](=O)[O-])cc2[N+](=O)[O-])ccc1O` [PHN3], the IC50 is 6.6 ± 0.03 µM in series [1] (setting [5]), 18.2 µM in series [1] (setting [6]), 2.415 ± 0.01 µM in series [3] (setting [7]) and 6.61 µM in series [3] (setting [8]). Besides, in series [1] (selectivity index), the “SI = CC50/IC50 for 3D7” value was determined as 20. In series [2], this compound had a CC50 at 72 h of 132 µM. Moreover, the “SI = CC50/IC50 for DD2” value in series [3] (selectivity index) was 55.

In the case of `C[C@H]1[C@H](OC(=O)CCC(=O)O)O[C@@H]2O[C@@]3(C)CC[C@H]4[C@H](C)CC[C@@H]1[C@@]24OO3` [Artesunate, reference compound], the “SI = CC50/IC50 for 3D7” value in series [1] is more than 1000. The values for the IC50 in series [1] (setting [5]) and in series [3] (setting [7]) were 0.004688 ± 1.7e-05 µM and 0.005063 ± 2.3e-05 µM, respectively. In addition, the CC50 at 72 h in series [2] (uninfected red blood cells) is 84.7 µM. For the same compound, the “SI = CC50/IC50 for DD2” value in series [3] is given as more than 1000.

In the case of “1-Benzylidene-2-(2,4-dinitrophenyl)hydrazine [PHN5]”, the “pIC50 3D7” value in series [1] (calculated from in vitro IC50s, 3D7 CS strain) is listed as 4.25. For the same compound, the IC50 in series [1] (read-out: 3D7 IC50, 3D7 chloroquine-sensitive strain, ring stage, 72 h, SYBR green) turned out to be 19.02 ± 0.02 µM; in series [3] (read-out: DD2 IC50, DD2 chloroquine-resistant strain, ring stage, 72 h, SYBR green), 6.591 ± 0.06 µM. The compound also yielded a CC50 in series [4] of 112 µM. Further, the “pIC50 Dd2” value in series [3] (calculated from in vitro IC50s, DD2 CR strain) is recorded as 4.71.

For the compound `O=[N+]([O-])c1ccc(NN=Cc2ccc(O)cc2O)c([N+](=O)[O-])c1` [PHN2, 4-(2-(2,4-Dinitrophenylhydrazono) Methyl) Benzene-1,3-diol], the IC50 is 14.12 ± 0.04 µM in series [1] (setting [5]), 269 µM in series [1] (setting [6]), 16.2 ± 0.17 µM in series [3] (setting [7]) and 40.7 µM in series [3] (setting [8]). The “SI = CC50/IC50 for 3D7” value in series [1] (selectivity index) is on record as 8. For the same compound, the cytotoxic concentration (CC50) at 72 h in series [2] worked out at 119 µM. The “SI = CC50/IC50 for DD2” value in series [3] (selectivity index) was 7.
